Experimental findings from patent US7241789B2, “Substituted indoles and their use as integrin antagonists” (3-Dimensional Pharmaceutical, Inc., priority 2001, dated 2007) are described below.

The term IC50 denotes the concentration that gives 50% inhibition. A higher IC50 goes with weaker potency in that assay.

For this assay, the target named is T1, human αvβ3 (Homo sapiens, UniProt P05106+P06756).
T1 construct: purchased Chemicon CC1019
Briefly: αvβ3-vitronectin Assay. Conditions: inhibition of binding of biotinylated human vitronectin to plate-coated human αvβ3, ELISA, room temperature. On the procedure: The assay is based on the method of Dennis (Dennis, M. S., et al., Proteins 15: […] (1993)). Costar 9018 flat-bottom 96-well ELISA plates were coated overnight at […] with 100 μL/well of 10 μg/mL human fibrinogen (Calbiochem 341578) in 20 mM Tris-HCl pH 7.5, 150 mM NaCl, 2 mM CaCl2, 0.02% NaN3 (TAC buffer), and blocked for 1 hr at 37° C. with 150 μL/well of TAC buffer containing 0.05% Tween 20 and 1% bovine serum albumin (TACTB buffer). After washing 3 times with 200 μL/well of 10 mM Na2 HPO4 pH 7.5, 150 mM NaCl, 0.01% Tween 20 (PBST buffer), controls or test compound (0.027–20.0 μM) were mixed with 40 μg/mL human GPIIbIIIa (Enzyme Research Laboratories) in TACTB buffer, and 100 μL/well of these solutions were incubated for 1 hr at 37° C. The plate was then washed 5 times with PBST buffer, and 100 μL/well of a monoclonal anti-GPIIbIIIa antibody in TACTB buffer (1 μg/mL, Enzyme Research Laboratories MabGP2b3a) was incubated at 37° C. for 1 hr. After washing (5 times with PBST buffer), 100 μL/well of goat anti-mouse IgG conjugated to horseradish peroxidase (Kirkegaard & Perry 14–23–06) was incubated at 37° C. for 1 hr (25 ng/mL in PBST buffer), followed by a 6-fold PBST buffer wash. The plate was developed by adding 100 μL/well of 0.67 mg o-phenylenediamine dihydrochloride per mL of 0.012% H2O2, 22 mM sodium citrate, 50 mM sodium phosphate, pH 5.0 at room temperature. The reaction was stopped with 50 μL/well of 2M H2SO4, and the absorbence at 492 nm was recorded. Percent (%) inhibition was calculated from the average of three separate determinations relative to buffer controls (no test compound added), and a four parameter fit (Marquardt, D. W., J. Soc. Indust. Appl. Math. 11:431–441 (1963)) was used to estimate the half maximal inhibition concentration (IC50).
The assay was based on the method of Niiya (Niiya, K., et al., Blood 70:475–483 (1987)). Costar 9018 flat-bottom 96-well ELISA plates were coated overnight at room temperature with 100 μL/well of 0.4 μg/mL human αvβ3 (Chemicon CC1019) in TS buffer (20 mM Tris-HCl pH 7.5, 150 mM NaCl, 1 mM CaCl2, 1 mM MgCl2, 1 mM MnCl2). All subsequent steps were performed at room temperature. Plates were blocked for 2 hr with 150 μL/well of TS buffer containing 1% BSA (TSB buffer), and washed 3 times with 200 μL/well of PBST buffer. Controls or test compound (0.0001–20.0 μM) were mixed with 1 μg/mL of human vitronectin (Chemicon CCO80) that had been biotinylated in-house with sulfo-NHS-LC-LC-biotin (Pierce 21338, 20:1 molar ratio), and 100 μL/well of these solutions (in TSB buffer) were incubated for 2 hr. The plate was then washed 5 times with PBST buffer, and 100 μL/well of 0.25 μg/mL NeutrAvidin-horseradish peroxidase conjugate (Pierce 31001) in TSB buffer was incubated for 1 hr. Following a 5-fold PBST buffer wash, the plate was developed and results were calculated as described for the fibrinogen-IIbIIIa assay.
(In general: ELISA stands for enzyme-linked immunosorbent assay.)

T1 sequence (P06756 31-889 limits assumed): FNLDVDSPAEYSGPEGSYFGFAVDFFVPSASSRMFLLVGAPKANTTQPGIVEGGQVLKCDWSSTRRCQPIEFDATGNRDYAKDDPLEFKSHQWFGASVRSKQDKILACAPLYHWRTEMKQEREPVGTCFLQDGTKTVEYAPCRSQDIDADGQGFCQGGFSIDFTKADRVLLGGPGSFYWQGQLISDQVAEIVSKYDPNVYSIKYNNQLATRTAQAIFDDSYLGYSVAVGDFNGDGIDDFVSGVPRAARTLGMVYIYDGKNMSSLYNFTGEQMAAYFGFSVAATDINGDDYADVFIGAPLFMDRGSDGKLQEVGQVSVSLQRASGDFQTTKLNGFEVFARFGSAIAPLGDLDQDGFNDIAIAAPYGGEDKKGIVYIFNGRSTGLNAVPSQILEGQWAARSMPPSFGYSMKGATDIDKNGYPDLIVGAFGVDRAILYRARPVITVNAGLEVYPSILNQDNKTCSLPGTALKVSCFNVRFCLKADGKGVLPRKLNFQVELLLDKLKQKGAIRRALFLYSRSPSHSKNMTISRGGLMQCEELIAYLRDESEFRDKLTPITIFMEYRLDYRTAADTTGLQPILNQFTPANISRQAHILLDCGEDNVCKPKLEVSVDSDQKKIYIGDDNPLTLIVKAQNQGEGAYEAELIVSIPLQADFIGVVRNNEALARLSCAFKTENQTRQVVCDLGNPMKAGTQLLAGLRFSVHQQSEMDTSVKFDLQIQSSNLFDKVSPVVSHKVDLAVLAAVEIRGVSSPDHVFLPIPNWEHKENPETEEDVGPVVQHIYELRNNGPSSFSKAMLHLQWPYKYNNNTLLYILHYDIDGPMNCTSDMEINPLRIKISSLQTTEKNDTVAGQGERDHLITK
T1 sequence (P06756 891-1048 limits assumed): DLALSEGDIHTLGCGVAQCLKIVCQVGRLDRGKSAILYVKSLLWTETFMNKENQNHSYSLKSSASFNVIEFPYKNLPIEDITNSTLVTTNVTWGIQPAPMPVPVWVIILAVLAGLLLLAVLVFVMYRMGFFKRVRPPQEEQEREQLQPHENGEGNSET
T1 sequence (P05106 27-788): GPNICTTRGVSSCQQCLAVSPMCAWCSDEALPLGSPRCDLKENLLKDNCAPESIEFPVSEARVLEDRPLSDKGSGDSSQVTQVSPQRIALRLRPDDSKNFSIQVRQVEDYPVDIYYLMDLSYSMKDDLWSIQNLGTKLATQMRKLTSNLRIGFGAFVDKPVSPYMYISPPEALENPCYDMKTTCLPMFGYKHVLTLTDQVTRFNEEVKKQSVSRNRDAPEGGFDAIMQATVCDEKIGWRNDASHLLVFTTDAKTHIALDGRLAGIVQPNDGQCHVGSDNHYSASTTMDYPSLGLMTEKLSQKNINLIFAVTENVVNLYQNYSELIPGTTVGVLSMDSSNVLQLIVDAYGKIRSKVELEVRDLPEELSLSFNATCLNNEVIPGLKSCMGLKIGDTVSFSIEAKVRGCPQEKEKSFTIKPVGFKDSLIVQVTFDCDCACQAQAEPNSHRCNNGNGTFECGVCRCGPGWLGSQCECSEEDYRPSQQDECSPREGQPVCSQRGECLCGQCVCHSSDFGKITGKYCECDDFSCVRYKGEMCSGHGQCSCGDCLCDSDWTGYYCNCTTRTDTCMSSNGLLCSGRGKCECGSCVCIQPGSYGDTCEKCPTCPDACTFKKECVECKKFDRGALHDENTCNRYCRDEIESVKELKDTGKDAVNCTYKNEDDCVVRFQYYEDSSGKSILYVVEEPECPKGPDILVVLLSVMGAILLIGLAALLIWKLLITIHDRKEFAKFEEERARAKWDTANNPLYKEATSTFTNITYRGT

Consider “3-{5-[3-(2-Pyridylamino)propoxy]indolyl}propanoic acid ammonium salt [Example 1]”, for which the IC50 worked out at 0.5 µM.
Next, `O=C(O)[C@@H]1C[C@H]1n1ccc2cc(OCCCNc3ccccn3)ccc21` (relative stereo) [Example 4]: 0.67 µM; `CNc1cccc(CCOc2ccc3c(ccn3CCC(=O)O)c2)n1` [Example 5, 3-(5-{2-[6-(Methylamino)-2-pyridyl]ethoxy}indolyl)propanoic acid]: 0.05 µM; `CC(Cn1ccc2cc(OCCCNc3ccccn3)ccc21)C(=O)O` (stereo not shown) [Example 7, 2-Methyl-3-{5-[3-(2-pyridylamino)propoxy]indolyl}propanoic acid]: 0.5 µM.
Consider `CCCC(CC(=O)O)n1ccc2cc(OCCc3ccc4c(n3)NCCC4)ccc21` (stereo not shown) [Example 14, 3-{5-[2-(5,6,7,8-Tetrahydro-[1,8]naphthyridin-2-yl)-ethoxy]-indol-1-yl}-hexanoic acid], for which the IC50 worked out at 0.004 µM.
Next, `O=C(O)CCn1ccc2cc(OCCc3ccc4c(n3)NCCC4)ccc21` [Example 15, 3-{5-[2-(5,6,7,8-Tetrahydro-[1,8]naphthyridin-2-yl)-ethoxy]-indol-1-yl}-propionic acid]: 0.006 µM; `O=C(O)CC(c1cccnc1)n1ccc2cc(OCCc3ccc4c(n3)NCCC4)ccc21` (stereo not shown) [Example 38, 3-Pyridin-3-yl-3-{5-[2-(5,6,7,8-tetrahydro-[1,8]naphthyridin-2-yl)-ethoxy]-indol-1-yl}-propionic acid]: 0.00024 µM.
